Activity calls are given as the source filed them. The rule behind the calls is not given here.
What was measured:
[1] = molecular target: T1, Nuclear factor erythroid 2-related factor 2 (Rattus norvegicus) (UniProt O54968); assay: Induction of Nrf2 nuclear translocation in rat PC-12 cells assessed as H2O2-induced GSH level incubated for 1 hr followed by H2O2 stimulation and measured after 5 hrs; assay type: cell-based; settings: dose 2.5-10 µM, time 6.0 hrs
T1 sequence (whole entry): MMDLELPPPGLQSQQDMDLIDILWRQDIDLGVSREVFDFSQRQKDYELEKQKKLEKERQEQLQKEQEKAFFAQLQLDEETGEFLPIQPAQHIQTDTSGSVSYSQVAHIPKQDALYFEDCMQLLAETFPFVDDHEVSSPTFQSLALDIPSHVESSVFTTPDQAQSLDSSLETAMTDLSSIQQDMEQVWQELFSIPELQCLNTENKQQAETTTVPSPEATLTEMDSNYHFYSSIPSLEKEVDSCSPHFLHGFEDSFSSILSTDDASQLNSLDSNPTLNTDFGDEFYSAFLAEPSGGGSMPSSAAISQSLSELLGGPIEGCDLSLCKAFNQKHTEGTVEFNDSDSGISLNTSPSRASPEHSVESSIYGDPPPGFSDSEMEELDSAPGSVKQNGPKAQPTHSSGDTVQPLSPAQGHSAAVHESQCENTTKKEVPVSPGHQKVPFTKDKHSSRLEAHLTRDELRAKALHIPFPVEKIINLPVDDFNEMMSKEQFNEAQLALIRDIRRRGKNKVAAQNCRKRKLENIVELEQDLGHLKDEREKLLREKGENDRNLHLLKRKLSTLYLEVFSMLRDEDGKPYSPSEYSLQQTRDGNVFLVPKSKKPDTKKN

[2] = molecular target: T1, Nuclear factor erythroid 2-related factor 2 (Rattus norvegicus); assay: Induction of Nrf2 nuclear translocation in rat PC-12 cells assessed as SNP-induced GSH level at 2.5 uM incubated for 1 hr followed by SNP stimulation and measured after 24 hrs (reference value: 75.78 +/- 1.74 nM/mg); assay type: cell-based; settings: time 25.0 hrs
PC-12 [3] = assay: Inhibition of SNP-induced apoptosis in rat PC-12 cells assessed as effect on cell morphology incubated for 1 hr followed by SNP stimulation and measured after 24 hrs by Hoechst 33258 staining based fluorescence microscopy; assay type: functional; settings: dose 2.5-10 µM, time 25.0 hrs
[4] = molecular target: T1, Nuclear factor erythroid 2-related factor 2 (Rattus norvegicus); assay: Induction of Nrf2 nuclear translocation in rat PC-12 cells assessed as SNP-induced SOD level at 2.5 uM incubated for 1 hr followed by SNP stimulation and measured after 24 hrs (reference value: 23.74 +/- 2.02 U/mg); assay type: cell-based; settings: time 25.0 hrs
[5] = molecular target: T1, Nuclear factor erythroid 2-related factor 2 (Rattus norvegicus); assay: Induction of Nrf2 nuclear translocation in rat PC-12 cells assessed as SNP-induced GSH level at 5 uM incubated for 1 hr followed by SNP stimulation and measured after 24 hrs (reference value: 75.78 +/- 1.74 nM/mg); assay type: cell-based; settings: time 25.0 hrs
PC-12 [6] = assay: Inhibition of SNP-induced mitochondrial membrane potential loss in rat PC-12 cells assessed as increase in red fluoresence at 2.5 to 10 uM incubated for 1 hr followed by SNP stimulation and measured after 24 hrs by JC-1 staining based fluorescence microscopy; assay type: functional, cell-based; settings: dose 2.5-10 µM, time 25.0 hrs
PC-12 [7] = assay: Effect on Nrf2 in rat PC-12 cells at 1.25 to 5 uM incubated for 24 hrs by Western blot analysis; assay type: functional, cell-based; settings: dose 1.25-5 µM
[8] = Tmax in Sprague-Dawley rat at 2 mg/kg, iv measured upto 24 hrs by LC-MS/MS analysis; assay type: ADME, organism-based; settings: in vivo
[9] = Toxicity in […] assessed as body weight at 400 mg/kg, ip observed after immediately (reference value: 24.4 to 28.4 g); assay type: organism-based; settings: in vivo
PC-12 [10] = assay: Cytoprotective activity against H2O2-induced cell death in rat PC12 cells assessed as increase in cell viability at 10 uM incubated for 1 hr followed by H2O2 stimulation and measured after 5 hrs in presence of LY294002 by MTT assay; assay type: functional, cell-based; settings: time 6.0 hrs
[11] = Toxicity in […] assessed as body weight at 400 mg/kg, ip measured on day 3 (reference value: 24.4 to 28.4 g); assay type: organism-based; settings: in vivo, 72 h, time 3 day
Rattus norvegicus [12] = assay: Neuroprotective activity in Sprague-Dawley rat model of middle cerebral artery occlusion-induced ischemic injury assessed as increase in SOD level at 3 to 30 mg/kg, ip administered TID and measured after 24 hrs by ELISA; assay type: functional, organism-based; settings: dose 3-30 mg/kg
[13] = Cmax in Sprague-Dawley rat at 2 mg/kg, iv measured upto 24 hrs by LC-MS/MS analysis; assay type: ADME, organism-based; design: route intravenous, dose 2 mg/kg, time <=24; settings: in vivo
PC-12 [14] = assay: Reversal of LY294002-induced Nrf2 inhibition in rat PC-12 cells at 1.25 to 5 uM incubated for 1 hr followed by LY294002 stimulation and measured after 24 hrs by Western blot analysis; assay type: functional, cell-based; settings: dose 1.25-5 µM, time 25.0 hrs
[15] = Half life in Sprague-Dawley rat at 20 mg/kg, po measured upto 24 hrs by LC-MS/MS analysis; assay type: ADME, organism-based; settings: in vivo
[16] = molecular target: T1, Nuclear factor erythroid 2-related factor 2 (Rattus norvegicus); assay: Induction of Nrf2 nuclear translocation in rat PC-12 cells assessed as SNP-induced GSH level incubated for 1 hr followed by SNP stimulation and measured after 24 hrs; assay type: cell-based; settings: dose 2.5-10 µM, time 25.0 hrs
[17] = molecular target: T1, Nuclear factor erythroid 2-related factor 2 (Rattus norvegicus); assay: Induction of Nrf2 nuclear translocation in rat PC-12 cells assessed as H2O2-induced GSH level at 10 uM incubated for 1 hr followed by H2O2 stimulation and measured after 5 hrs (reference value: 65.52 +/- 1.44 nM/mg); assay type: cell-based; settings: time 6.0 hrs
[18] = molecular target: T1, Nuclear factor erythroid 2-related factor 2 (Rattus norvegicus); assay: Induction of Nrf2 nuclear translocation in rat PC-12 cells assessed as H2O2-induced SOD level at 2.5 uM incubated for 1 hr followed by H2O2 stimulation and measured after 5 hrs (reference value: 29.69 +/- 1.65 U/mg); assay type: cell-based; settings: time 6.0 hrs
[19] = molecular target: T1, Nuclear factor erythroid 2-related factor 2 (Rattus norvegicus); assay: Induction of Nrf2 nuclear translocation in rat PC-12 cells assessed as SNP-induced GSH-px level at 5 uM incubated for 1 hr followed by SNP stimulation and measured after 24 hrs (reference value: 37.70 +/- 2.88 mU/mg); assay type: cell-based; settings: time 25.0 hrs
[20] = Clearance in Sprague-Dawley rat at 20 mg/kg, po measured upto 24 hrs by LC-MS/MS analysis; assay type: ADME, organism-based; settings: in vivo
Rattus norvegicus [21] = assay: Neuroprotective activity in Sprague-Dawley rat model of middle cerebral artery occlusion-induced ischemic injury assessed as increase in MDA level at 3 to 30 mg/kg, ip administered TID and measured after 24 hrs by ELISA; assay type: functional, organism-based; settings: dose 3-30 mg/kg
Rattus norvegicus [22] = assay: Neuroprotective activity in Sprague-Dawley rat model of middle cerebral artery occlusion-induced ischemic injury assessed as decrease in TNF-alpha level at 3 to 30 mg/kg, ip administered TID and measured after 24 hrs by ELISA; assay type: functional, organism-based; settings: dose 3-30 mg/kg
[23] = molecular target: T1, Nuclear factor erythroid 2-related factor 2 (Rattus norvegicus); assay: Induction of Nrf2 nuclear translocation in rat PC-12 cells assessed as decrease in cytoplasmic Nrf2 level at 1.25 to 5 uM incubated for 24 hrs by Western blot analysis; assay type: cell-based; settings: dose 1.25-5 µM
[24] = molecular target: T1, Nuclear factor erythroid 2-related factor 2 (Rattus norvegicus); assay: Induction of Nrf2 nuclear translocation in rat PC-12 cells assessed as SNP-induced GSH-px level at 10 uM incubated for 1 hr followed by SNP stimulation and measured after 24 hrs (reference value: 37.70 +/- 2.88 mU/mg); assay type: cell-based; settings: time 25.0 hrs
Rattus norvegicus [25] = assay: Neuroprotective activity in Sprague-Dawley rat model of middle cerebral artery occlusion-induced ischemic injury assessed as infarction volume at 3 mg/kg, ip administered TID and measured after 6 hrs by TTC staining based assay (reference value: 28.67 +/- 2.90 %); assay type: functional

With `COc1ccc(-c2nc(-c3ccccc3O)n(-c3ccc(S(N)(=O)=O)cc3)n2)c(O)c1` the Activity [1] was “Dose-dependent effect”, the Activity [2] was 79.1 nM/mg and the inhibition (PC-12 [3]) was “Dose-dependent effect”. The Activity [4] was 34.6 U/mg, the Activity [5] was 86.7 nM/mg and the inhibition (PC-12 [6]) was “Active”. The Activity (PC-12 [7]) was “inactive”, the Tmax [8] was 4.98 min and the Activity [9] was 24.6 g. For the same molecule, the Activity (PC-12 [10]) was “inactive”, the Activity [11] was 24.5 g and the Activity (Rattus norvegicus [12]) was “Active”. For the same molecule, the Cmax [13] was 2750 ng/mL, the Activity (PC-12 [14]) was “Active” and the half-life [15] was 4.26 h. For the same molecule, the Activity [16] was “Dose-dependent effect”, the Activity [17] was 80.6 nM/mg and the Activity [18] was 36.3 U/mg. For the same molecule, the Activity [19] was 44.4 mU/mg, the CL/F [20] was 23.3 mL/min/kg and the Activity (Rattus norvegicus [21]) was “Active”. For the same molecule, the Activity (Rattus norvegicus [22]) was “Active”, the Activity [23] was “Active” and the Activity [24] was 52.8 mU/mg. It also gave an Activity (Rattus norvegicus [25]) of 20.52%.
